The text below walks through data of patent publication US8298793B2, “Methods for isolating proteons from plasma samples” (Auburn University, priority 2002, dated 2012).

Several values for one entry are separate records, joined by “and”; a condition that tells them apart may be missing. Equal entries are not always repeated. Entries after “also recorded” stand apart in the source; their conditions may differ. Structures can show the parent of a compound that is named as a salt.

For one assay, the system named is proteons. The assay is described as follows: Proteon formation in plasma, counted by dark-field microscopy. The class given is biochemical. The settings on record: for number of proteons visible by dark-field microscopy: added to proteons produced without chaotropic compounds, then 120° C. and 20 psi; for number of proteons with rising concentration of chaotropic compound: plasma with 0, 0.01, 0.1, 1, 4 and 8 M, 120° C., 20 psi, dark-field microscopy.

Assay [1] relates to F98 (rat brain glioma) cells. The assay is described as follows: MTT cell proliferation assay on F98 glioma cells. The settings on record: Staurosporine, 1% FCS, concentration not printed; for Absorbance at 550 nm (MTT), single well: listed as Staurosporine. It counts as cell-based. An excerpt: (§1) The impact of PNCs upon viability of various cultured cells was investigated using the tetrazolium salt (MTT) cell proliferation assay. RG2 ([…] brain glioma), F98 (rat brain glioma), Hs683 (human brain glioma), CTX TNA2 (rat transfected astrocyte), H9c2[2-1] (rat heart myocardium), 27FR (rat skin fibroblast), and SVGp12 (human brain astroglia) cells were obtained from American Type Culture Collection (ATCC) and maintained as recommended by ATCC. MTT cell proliferation assays are commercially available. See, e.g., MTT cell proliferation assay from ATCC. Cells were plated in Dulbecco's modified Eagle's growth medium ([…], Sigma Chemical Inc., St. […] PNCs were isolated from blood obtained from shark, dog, and rabbit using the ultrafiltration protocol described in Example 5. PNCs were autoclaved at 120° C. and 20 psi for 15 minutes before adding to the cell cultures. […] MTT was reduced in metabolically active cells to form purple formazan crystals, which were dissolved by DMSO and quantified by a BIO-RADTM plate reader. For each cell type, a linear relationship between cell number and absorbance is established, enabling accurate, straightforward quantification of changes in proliferation.
For orientation: Formazan colour is commonly taken as a measure of viable cells.

The subject of assay [2] is CTX TNA2 (rat transfected astrocyte) cells. The assay is described as follows: MTT cell proliferation assay on CTX astrocytes. The settings on record: CTX astro, Staurosporine, 1% FCS. It counts as cell-based.
Source text: as §1

Assay [3] concerns 27FR (rat skin fibroblast) cells. The assay is described as follows: MTT cell proliferation assay on fibroblasts. It counts as cell-based. The settings on record: Fibro, Staurosporine, 1% FCS.
Source text: as §1

Assay [4] concerns H9c2[2-1] (rat heart myocardium) cells. The assay is described as follows: MTT cell proliferation assay on myocardium cells. It counts as cell-based. The settings on record: Staurosporine, 1% FCS, concentration not given.
Source text: as §1

The test system of assay [5] is SVGp12 (human brain astroglia) cells. The assay is described as follows: MTT cell proliferation assay on SVG astrocytes. The class given is cell-based. The settings on record: SVG astro, Staurosporine, 1% FCS, concentration not printed; for Absorbance at 550 nm (MTT), single well: listed as Staurosporine.
Source text: as §1

The next assay has as its system RG2 cells. The assay is described as follows: MTT cell proliferation assay on RG2 glioma cells. The class given is cell-based, mouse.
The mark [6] stands for this setting: Table 10, concentration not given.
The mark [7] stands for this setting: myocard, Table 10 second myocard column.
Setting [8] is: RG2, 10% FCS, staurosporine 1 μM, Table 6.
[9] abbreviates: RG2, Staurosporine 100 urn, 1% FCS, Table 10.
[10] abbreviates: RG2, Staurosporine, 1% FCS, Table 10, concentration not given.

Experimental for RG2 cells: The impact of PNCs upon viability of various cultured cells was investigated using the tetrazolium salt (MTT) cell proliferation assay. RG2 (mouse brain glioma), F98 (rat brain glioma), Hs683 (human brain glioma), CTX TNA2 (rat transfected astrocyte), H9c2[2-1] (rat heart myocardium), 27FR (rat skin fibroblast), and SVGp12 (human brain astroglia) cells were obtained from American Type Culture Collection (ATCC) and maintained as recommended by ATCC. […] Cells were plated in Dulbecco's modified Eagle's growth medium ([MUT], Sigma Chemical Inc., St. […] PNCs were autoclaved at 120° C. and 20 psi for 15 minutes before adding to the cell cultures. […] MTT was reduced in metabolically active cells to form purple formazan crystals, which were dissolved by DMSO and quantified by a BIO-RADTM plate reader. For each cell type, a linear relationship between cell number and absorbance is established, enabling accurate, straightforward quantification of changes in proliferation. […] Catalog No. S5921), 100 μg, FW 466.5. Dissolve 100 μg staurospine into 214.3 μl • DMSO to equal a 1 mM stock solution. Store at -200° C. […] TX put on late afternoon. • Add staurospine, autoclaved shark PNC, and either 10%, 1%, or 0% FCS treatments to cells and incubate overnight.

`NC(N)=O` [urea]: in the assay on proteons, the “number of proteons visible by dark-field microscopy” value is listed as “great reduction” and the “number of proteons with rising concentration of chaotropic compound” value was “decreased”.
With `CN[C@@H]1C[C@H]2O[C@@](C)([C@@H]1OC)n1c3ccccc3c3c4c(c5c6ccccc6n2c5c31)C(=O)NC4` [staurosporine], the “Ab. Av. (Absorbance at 550 nm, MTT)” value in assay [1] (Table 10 first F98 column) is reported as 0.1333; in assay [1] (Table 10 second F98 column), 0.1085; in assay [2] (setting [6]), 0.1445; in assay [2] (Table 10 first CTX column, concentration not given), 0.3782; in assay [3] (setting [6]) it was 0.2757; in assay [3] (Table 10 second Fibro column, concentration not given), 0.169. The “Ab. Av. (Absorbance at 550 nm, MTT)” value in assay [4] (Myocard, Table 10 first Myocard column) is reported as 0.283; in assay [4] (setting [7]), 0.16; in assay [5] (Table 10 first SVG column) it was 0.128; in assay [5] (Table 10 second SVG column), 0.067; in the assay with RG2 cells (setting [8]), 0.4053; in the assay on RG2 cells (setting [9]), 0.2893. Further, the “Ab. Av. (Absorbance at 550 nm, MTT)” value with RG2 cells (setting [10]) is 0.1268. The “Absorbance at 550 nm (MTT), single well” value in assay [1] (Table 10 first F98 column) is 0.136 and 0.138 and 0.12 and 0.139; in assay [1] (Table 10 second F98 column), 0.108 and 0.109; in assay [2] (setting [6]) it was 0.122 and 0.118 and 0.126; in assay [3] (setting [6]), 0.296 and 0.257 and 0.275; in assay [4] (setting [7]), 0.176; in assay [5] (Table 10 first SVG column), 0.128 and 0.12 and 0.136. The “Absorbance at 550 nm (MTT), single well” value is 0.067 and 0.066 and 0.068 in assay [5] (Table 10 second SVG column); 0.406 and 0.411 and 0.399 in the assay with RG2 cells (setting [8]); 0.272 and 0.279 in the assay on RG2 cells (setting [9]); 0.149 and 0.12 and 0.119 with RG2 cells (setting [10]). Further, in the assay on RG2 cells (RG2, stauro 1% FCS (1 μM per protocol b158), Table 7), the “Ab Av. (Absorbance at 550 nm, MTT)” value is recorded as 0.09867.
On to `O=C(O)CN(CCN(CC(=O)O)CC(=O)O)CC(=O)O` [EDTA, ethylene diamine tetra acetate], for which the “effect on formation of proteons from plasma” value in the assay on proteons (10 mM EDTA added) is on record as “prevented the formation of proteon; also recorded: production was quenched”.
Regarding `N=C(N)N` [guanidine hydrochloride], in the assay on proteons, the “number of proteons visible by dark-field microscopy” value was “great reduction” and the “number of proteons with rising concentration of chaotropic compound” value is reported as “decreased”.
